Values of other authors, collected in US6767895B2 (priority 2000, dated 2004).

Conditions: in vivo; cited from earlier work

Substance: contulakin-G
- potency in inhibiting pain relative to neurotensin: significantly more potent than neurotensin
